Results from patent US20250025383A1, “EMOLLIENT COMPOSITION IN EMULSION FORM” (PIERRE FABRE MEDICAMENT, priority 2018, published 2025).

Key:
[1] = Measurement of consistency (TAXT+ texture analyser); format: physicochemical; settings: ingredient added to glycerol/Vaseline/liquid paraffin emulsion
Procedure: The measurement of consistency is carried out at room temperature (around 20° C.) in a 250 mL glass jar filled to 200 g. The measurement is performed using a TAXT+type texture analyser (Swantec). The consistency of the product is represented by the maximum resistance force of the probe in the product, which is directly proportional to the measured mass. The consistency value is expressed in g.
• 250 g glass jar filled to 200 g • P25 steel cylinder
• Pre-speed: 4 mm/s • Speed: 8 mm/s • Post-speed: 8 mm/s • Displacement: 20 mm • Triggering threshold: 5 g
Fill the container (glass jar) without introducing air into the product.
Tap the jar so as to pack down the cream and to obtain the smoothest surface possible.
Maintain the jar closed […] before carrying out the measurement.

[2] = preservative not tested (nt) in emulsion; cited from earlier work

Compound	Effect on the consistency and/or the viscosity of the emulsion [1]	Comments/other aspects [2]
CCCCC(O)CO (stereo not shown) [1,2 hexanediol]	fluidification of the formula	–
O.O.O.O.O.O.O.O.O.O.[Na+].[Na+].[O-]B1OB2OB([O-])OB(O1)O2 [Sodium borate]	–	irritant
CCCCC(CC)COCC(O)CO (stereo not shown) [ethylhexyl glycerin]	fluidification of the formula	–
OB(O)O [Boric acid]	–	irritant
